Where two headings read alike, the source gives them in different places.
What was measured:
[1] = Chemical hydrolysis in aqueous buffers (PBS pH 7.3 / 8.0, citrate buffer pH 2.0), RP18-HPLC; format: physicochemical; settings: for half-life: 25 mM citrate buffer, pH 2.0, 37 °C; for half-life at 1.9 mM: phosphate buffered saline
Outline: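 Compound incubated at 37 °C in PBS pH 7.3 or 8.0, or citrate/NaCl/HCl buffer adjusted to pH 2.0 with NaOH. Aliquots sampled over time, stored at −30 °C, and hydrolysis products quantified by RP18-HPLC with UV detection.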

[2] = Hydrolysis in CEM/0 cell extracts; format: in vitro ADME; settings: human
Description: Next, TetraPPPPro-nucleotides 4–9 were incubated in human CD4^+ T-lymphocyte CEM/0 cell extracts to study their stability and identify the hydrolysis products.
CEM cells were grown in RPMI-1640-based cell culture medium to a final density of ∼3 × 10^6 cells/mL. Cells were centrifuged for 10 min at 1250 rpm at 4 °C and washed twice with cold PBS, and the pellet was resuspended at 10^8 cells/mL and sonicated (Hielscher Ultrasound Techn., 100% amplitude, 3·times for 10 s) to destroy cell integrity. Next, the resulting cell suspension was centrifuged at 10,000 rpm to remove cell debris. Finally, the supernatant was divided into aliquots and frozen at −80 °C.
6.0 mM hydrolysis solutions of compounds 4–9 were prepared from 21 μL of 50 mM DMSO stock solutions and 154 μL of DMSO. Two different samples, including 10 μL of water and 10 μL of 6.0 mM hydrolysis solution, were prepared in 2 mL Eppendorf vials. Next, 50 μL of human CEM cell extracts or 50 μL of human citrate plasma were added to the mixture, the reaction was started, and the mixture was incubated at 37 °C for different time periods. The reactions were stopped by the addition of 150 μL of MeOH. The resulting suspension was kept on ice for 5 min, followed by defrosting and centrifugation at 14,000 rpm (Heraeus, Biofuge Pico) for 22 min. The supernatants (80 or 60 μL) were directly injected into HPLC. The calculation of t1/2 was performed analogously to that for the chemical hydrolysis studies.

[3] = Cytotoxicity, inhibition of CEM cell proliferation; format: cell-based; settings: human, CEM cells (CD4+ T-cells), read-out: toxicity CC50
[4] = tested on: HIV-1 (HE); assay: Anti-HIV replication assay, HIV-1 (HE) in wild-type CEM/0 cells; format: cell-based; settings: Human immunodeficiency virus 1, CCRF-CEM, read-out: HIV-1 (HE) EC50
Outline: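 Wild-type CEM/0 CD4+ T-cells (~3 × 10^5 cells/mL) infected with 100 CCID50/mL HIV-1(HE) alongside compound dilutions, incubated 4–5 days at 37 °C. Syncytia (giant cell) formation scored microscopically; EC50 is the concentration inhibiting HIV-induced giant cell formation by 50%.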

[5] = tested on: HIV-2 (ROD); assay: Anti-HIV replication assay, HIV-2 (ROD) in wild-type CEM/0 cells; format: cell-based; settings: for selectivity index (SI): CC50/EC50, HIV-2 (ROD) in CEM cells; for EC50: Human immunodeficiency virus 2, CCRF-CEM, read-out: HIV-2 (ROD) EC50
Outline: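 Wild-type CEM/0 or thymidine kinase-deficient CEM/TK– T-cells (~3 × 10^5 cells/mL) were infected with 100 CCID50/mL HIV-2(ROD) in the presence of compound dilutions. After 4–5 days at 37 °C, virus-induced cytopathicity and syncytium formation were scored microscopically.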

[6] = 25 mM PBS, pH 7.3, 37 °C, read-out: PBS pH 7.3 t1/2 (converted)
[7] = PBS, pH 8.0, 37 °C, read-out: PBS pH 8.0 t1/2 (converted)
[8] = 37 °C, read-out: CEM/0 cell extracts t1/2 (converted)
[9] = wild-type CEM/0 cells, mean ± SD, n = 2–3

SMILES | half-life [1] | half-life at 1.9 mM [1, 6] | half-life at 1.9 mM [1, 7] | half-life at 0.86 mM [2, 8] | CC50 [3] | EC50 [4, 9] | selectivity index (SI) [5] | EC50 [5, 9] | EC50 [4] | EC50 [5] | half-life at 0.86 mM ([2]; dephosphorylation, read-out: t1/2 in CEM/0 cell extracts)
CCCCCCCCCCCCCCCCCCOP(=O)(OCCCC)OP(=O)(O)OP(=O)(O)OP(=O)(O)OC[C@@H]1C=C[C@H](n2cc(C)c(=O)[nH]c2=O)O1 (stereo partly shown) [4d, δ-(Alkyl-C4; alkyl-C18)-d4T4P] | 66 h | 251 h | > 100 h | > 20 h | 43900 nM | 110 ± 10 nM | 522 | 84 ± 18 nM |  |  | 
CCCCCCCCCCCCCCCCCCP(=O)(OCCCC)OP(=O)(O)OP(=O)(O)OP(=O)(O)OC[C@@H]1C=C[C@H](n2cc(C)c(=O)[nH]c2=O)O1 (stereo partly shown) [5a, δ-(Alkyl-C4)-δ-C-(alkyl-C18)-d4T4P] | > 150 h | > 1000 h | > 200 h | > 20 h | 44600 nM |  |  |  | 330 ± 90 nM | 330 ± 120 nM | 
CCCCCCCCCCCCCCCCCCOP(=O)(O)OP(=O)(O)OP(=O)(O)OP(=O)(O)OC[C@@H]1C=C[C@H](n2cc(C)c(=O)[nH]c2=O)O1 [compound 20, δ-(Alkyl-C18)-d4T4P] |  | 132 h |  | > 8 h | > 100000 nM | 710 ± 260 nM | >200 | 500 ± 160 nM |  |  | 
CCCCCCCCCCCCCCCCCCP(=O)(O)OP(=O)(O)OP(=O)(O)OP(=O)(O)OC[C@@H]1C=C[C@H](n2cc(C)c(=O)[nH]c2=O)O1 [compound 24, δ-C-(Alkyl-C18)-d4T4P] |  | > 1000 h |  | > 30 h | 23200 nM | 430 ± 370 nM |  | 240 ± 70 nM |  |  | 
Cc1cn([C@H]2C=C[C@@H](COP(=O)(O)OP(=O)(O)OP(=O)(O)OP(=O)(O)O)O2)c(=O)[nH]c1=O [d4T4P, 2′,3′-didehydro-2′,3′-dideoxythymidine-5′-tetraphosphate] | > 150 h | 534 h | > 150 h | 0.37 h | > 100000 nM | 420 ± 160 nM |  | 220 ± 92 nM |  |  | 0.367 h

Source: paper PMC10895676, “Antiviral Activity of Lipophilic Nucleoside Tetraphosphate Compounds” (Journal of Medicinal Chemistry, 2024)
